From patent publication US7371414B2, “Therapeutic and diagnostic methods dependent on CYP2A enzymes” (Nicogen, Inc., priority 1997, dated 2008)
Read-outs that look alike come from different tables or passages of the source. Blank lines part the entries; values can stand above or below the compound they belong to.

Experiments:
[1] = target: T1, CYP2A6 (Homo sapiens, UniProt P11509); settings: nicotine 4.0 mg p.o.; for increase in plasma nicotine: p<0.01
T1 sequence (P11509 1-494): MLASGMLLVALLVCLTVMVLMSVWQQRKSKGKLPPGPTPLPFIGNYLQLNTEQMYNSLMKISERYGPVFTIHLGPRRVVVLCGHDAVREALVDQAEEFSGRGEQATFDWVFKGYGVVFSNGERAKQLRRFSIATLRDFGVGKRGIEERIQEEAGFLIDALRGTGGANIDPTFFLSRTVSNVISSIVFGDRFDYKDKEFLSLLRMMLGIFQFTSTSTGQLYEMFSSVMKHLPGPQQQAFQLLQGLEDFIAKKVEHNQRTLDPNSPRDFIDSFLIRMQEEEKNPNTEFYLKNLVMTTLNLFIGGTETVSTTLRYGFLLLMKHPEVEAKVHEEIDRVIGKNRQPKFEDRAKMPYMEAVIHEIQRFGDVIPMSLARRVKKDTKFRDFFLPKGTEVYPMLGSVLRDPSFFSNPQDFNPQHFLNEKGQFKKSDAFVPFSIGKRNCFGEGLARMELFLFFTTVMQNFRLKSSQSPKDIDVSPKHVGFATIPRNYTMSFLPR

[2] = target: T1, CYP2A6; assay: In vitro inhibition of nicotine metabolism in expressed CYP2A6
[3] = target: T1, CYP2A6; assay: Inhibition of nicotine metabolism to cotinine in test livers; format: biochemical; parameters: from tissue; host or cells: human smokers in vivo (hepatic CYP2A6)
[4] = target: T1, CYP2A6; assay: Effect of esculetin on nicotine metabolism by human liver microsomes; format: biochemical; parameters: from tissue; host or cells: human smokers in vivo (hepatic CYP2A6); settings: FIG. 19
Description: Nicotine metabolism was monitored in vitro. Inhibitor assessment was carried out by comparing the assay including 50 μl tris buffer with the extracts prepared in Example 11 (50 μl, diluted in tris buffer). Human liver microsomes or CYP2A6 microsomes were used. The concentration of inhibitor in Hypericum was calculated on the basis of an apparent molecular weight of the inhibitor of 504 and a concentration of 0.3% active material in the plant material when diluting to yield concentrations of […] μM.
• Substrate 80 μM (50 μl tris buffer) • NADPH1 mM (50 μl tris buffer) • Microsomes 80 μg (30 μl tris buffer) • Cytosol (rat) 20 μl (tris buffer) • Tris buffer 50 μl (pH7.4) • Final volume […] Incubation Procedure:
The incubation was carried out at 37° C. for 30 min. An internal standard (50 μl, caffeine, 0.05 mg/ml) was added to the incubation mixture, followed by DCM (1 ml). The mixture was shaken for 10 min and centrifuged for 5 min at 3,000 g. The top layer was aspirated. HC1 (0.01 N, 100 μl) was added, followed by shaking for 1 min, then centrifuge for 5 min at 3,000 g. 30 μl of the HCl layer was injected for HPLC. […]

[5] = target: T1, CYP2A6; assay: Effect of methoxsalen on nicotine metabolism in tobacco dependent smokers (Example 6); format: in vivo; parameters: from tissue; host or cells: human smokers in vivo (hepatic CYP2A6); settings: methoxsalen 10 mg t.i.d. p.o.
Description: Subjects were recruited only if they smoked at least 15 cigarette per day, and were required to smoke the same number of cigarettes each day, on all four study days. During assessment, blood was taken to be analyzed for plasma nicotine and cotinine levels, as well as for CYP2A6 genotyping. Breath carbon monoxide was also measured.
During each study day a smoking log was completed. This log asked subjects to document the number of cigarette smoked from 8:00 a.m. to […]., and 10:00 p.m. to 8:00 a.m. Study days 1 and 2 could be separated, but days 2, 3 and 4 were required to be consecutive.
On both study days 1 (placebo) and 4 (treatment), a 24 h urine collection was initiated on waking. At 2:00 p.m. blood was drawn for nicotine and cotinine analysis and breath carbon monoxide was measured. […] Urine samples can be analyzed for 24 h NNAL, NNAL glucuronide, creatinine and cotinine.

[6] = tested on: CYP2A6; assay: In vivo phenotype assay: plasma kinetics of nicotine and coumarin after oral administration by CYP2A6 genotype; settings: both, human, 4 mg, plasma nicotine, 90 min after nicotine 4.0 mg oral
Description: The plasma kinetics of nicotine and coumarin were compared after oral administration in 10 smokers and 9 non-smokers (12 males, 7 females) of known CYP2A6 genotype. The dose of nicotine was 4.0 mg (expressed as base) and the dose of coumarin was 50 mg. The plasma concentration of nicotine, cotinine, coumarin and 7-OH-coumarin were measured as described above.

[7] = cited from earlier work

SMILES: N[C@@H]1C[C@H]1c1ccccc1 (racemic) [tranylcypromine]
- desire to smoke ([1]; inhibitor dose 2.5 mg (T2.5), p=0.17): significant (p<0.05) decrease
- increase in plasma nicotine ([1]; inhibitor dose 2.5 mg): ~100%
- increase in plasma nicotine ([1]; inhibitor dose 10 mg): ~100%
- plasma nicotine compared to placebo (in words) ([1]; methoxsalen 3 mg, 10 mg or 30 mg, tranylcypromine 2.5 mg or 10 mg): significantly increased
- inhibition of CYP2A6 (in words) [2]: potent inhibitors of CYP2A6

- inhibition of nicotine metabolism to cotinine [3]: 84%±11%
SMILES: O=c1ccc2ccccc2o1 [coumarin]

SMILES: O=c1ccc2cc(O)c(O)cc2o1 [esculetin]
- inhibition of nicotine metabolism by CYP2A6 (in words) [4]: potent inhibitor of CYP2A6

- desire to smoke ([1]; inhibitor dose 10 mg (M10)): significant (p<0.05) decrease
- desire to smoke ([1]; inhibitor dose 30 mg (M30)): significant (p<0.05) decrease
- decrease in breath CO ([5]; day 4 vs placebo day): 11%
- increase in plasma nicotine ([5]; day 4 vs placebo day): 17%
- breath CO ([5]; treatment day 4): 20.5 ppm
- plasma nicotine ([5]; treatment day 4): 27 ng/mL
SMILES: COc1c2occc2cc2ccc(=O)oc12 [methoxsalen]

SMILES: CN1CCCC1c1cccnc1 (stereo not drawn) [nicotine]
- concentration at 90 min ([6]; genotype *1/*1): 24 ± 15 nM
- concentration at 90 min ([6]; genotype *1/*2 or *1/*3): 29 ± 12 nM
- concentration at 90 min ([6]; genotype *2/*2): 52 ± 3 nM
- share of nicotine metabolized to the inactive metabolite cotinine ([7]; in humans): 60-85%
- share of nicotine metabolized by CYP2A6 in vivo ([7]; in vivo): approximately 75%
- share of oral nicotine metabolized to cotinine by the liver ([7]; oral, first pass): 60-85%
- nicotine bioavailability ([7]; oral): 20-35%
- share of oral nicotine that reaches the systemic circulation ([7]; oral): 15-40%
